Columns and labels:
[1] = tested on: RBL-2H3 mast cells; test: Degranulation assay, β-hexosaminidase release; type: cell-based, rat; details: for reduction of β-hexosaminidase release: 10 µM PTD-fused peptide without SLO (LY294002 as positive control), DNP-BSA stimulation, no A23187 pretreatment, three independent experiments (Figure 2A gray bars, 2C); for inhibition of mast cell degranulation with versus without A23187 pretreatment: PTD-conjugated peptides, read-outs β-hexosaminidase and histamine (Figure 4B); for inhibition of β-hexosaminidase release after A23187 pretreatment: cells pretreated with A23187, sensitized with DNP-IgE, then PTD-conjugated peptide (Figure 4B)
[2] = molecular target: T1, SN23-Syn4-Vp8 SNARE complex (Rattus norvegicus, UniProt O70377+Q08850+Q9WUF4); test: SNARE-driven membrane fusion (total lipid mixing) assay with proteoliposomes; type: biochemical; details: peptide added after preincubation of T- and V-liposomes at 4°C overnight (partially zippered SNAREs) (Figure 4A)
T1 construct: Syn4 (amino acids 1–298); SNAP-23 (amino acids 1–210); VAMP8 (amino acids 1–100); GST (N, cleaved yes); made in house; host or cells: Escherichia coli Rosetta(DE3)pLysS
T1 sequence (Q08850 1-298): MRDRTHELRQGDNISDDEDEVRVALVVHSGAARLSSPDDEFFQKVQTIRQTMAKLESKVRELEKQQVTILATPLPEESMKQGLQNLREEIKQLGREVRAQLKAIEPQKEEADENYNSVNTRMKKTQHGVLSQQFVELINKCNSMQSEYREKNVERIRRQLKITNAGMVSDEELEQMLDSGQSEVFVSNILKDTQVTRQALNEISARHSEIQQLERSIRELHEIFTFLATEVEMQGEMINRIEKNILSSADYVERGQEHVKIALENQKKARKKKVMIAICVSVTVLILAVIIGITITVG
T1 sequence (O70377 1-210): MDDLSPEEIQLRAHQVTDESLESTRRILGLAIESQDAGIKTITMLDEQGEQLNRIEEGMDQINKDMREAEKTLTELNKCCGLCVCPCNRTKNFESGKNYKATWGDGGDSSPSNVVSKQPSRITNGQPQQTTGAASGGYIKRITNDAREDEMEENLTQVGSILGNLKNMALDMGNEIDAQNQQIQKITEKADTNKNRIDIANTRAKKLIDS
T1 sequence (Q9WUF4 1-100): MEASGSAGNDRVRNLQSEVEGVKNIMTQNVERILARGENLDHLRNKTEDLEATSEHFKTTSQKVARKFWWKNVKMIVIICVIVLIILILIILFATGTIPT

[3] = molecular target: T1, SN23-Syn4-Vp8 SNARE complex; test: as above; type: biochemical; details: for inhibition of membrane fusion (lipid mixing): inhibitor applied to T-vesicles, T:V 9:1, 37°C, NBD dequenching, Vp2S/Vp8S at 10 µM, three independent experiments (Figure 3B-D); for inhibition of membrane fusion, peptide added before preincubation: peptide added before preincubation of T- and V-liposomes at 4°C overnight (Figure 4A)
From the text: Total RNA was obtained from RBL-2H3 cells using TRIzol® Reagent (#15596026, Invitrogen, Carlsbad, CA, USA) and served as a template for cDNA synthesis with M-MLV reverse transcriptase (M1705, Promega, Madison, WI, USA) according to the manufacturer’s protocol. The cDNAs amplified for rat Syn4, SNAP-23, VAMP2, VAMP4, VAMP7, and VAMP8 using each primer pair ([4]), were cloned into the pGEX-4T 1 vector. The mast cell SNARE proteins [Syn4 (amino acids 1–298), SNAP-23 (amino acids 1–210), full-length VAMP2 (VpF, amino acids 1–116), VAMP4 (amino acids 1–141), and VAMP8 (amino acids 1–100)] were expressed in Escherichia coli Rosetta(DE3)pLysS (#70956, Novagen, Darmstadt, Germany) and purified as glutathione-S-transferase-tagged fusion proteins as reported previously ([8]).
To prepare the unilamellar liposomes, a 50-mM lipid mixture of palmitoyl-2-oleoylphosphatidylcholine (POPC) (#850457, Avanti Polar Lipids, Alabaster, AL, USA):1,2-dioleoyl-phosphatidylserine (DOPS) (#840035, Avanti Polar Lipids) at 65:35 mol% was dried in a glass tube under a gentle stream of nitrogen gas and then exposed to a vacuum overnight. The resultant lipid film was resuspended in dialysis buffer (25 mM HEPES and 100 mM KCl, pH 7.4) by vortexing, followed by an extrusion step with polycarbonate membrane filters having a pore size of 100 nm (#610005, Avanti Polar Lipids). To prepare proteoliposomes, binary T-SNAREs, which were pre-formed by mixing Syn4 and SNAP-23 at room temperature for 60 min, were incubated with 50 mM unilamellar liposomes for 15 min at the same temperature, resulting in a 50:1 lipid/protein molar ratio ([9]).
For the preparation of V-SNARE proteoliposomes, a 10-mM premixed lipid solution [POPC:DOPS:N-(7-nitro-2-1,3-benzoxadiazol-4-yl (NBD))-phosphatidylserine (#810198, Avanti Polar Lipids):[…] (#810150, Avanti Polar Lipids) = 62:35:1.5:1.5 (molar ratio)] was used for the preparation of fluorescent liposomes in the same manner as above. The prepared liposomes were then mixed with VAMP2 for 15 min at room temperature. The liposome/protein mixture was diluted twice to bring the concentration of n-octyl glucoside (O8001, Sigma-Aldrich) below the critical micelle concentration. After overnight dialysis against 1L dialysis buffer at 4°C to remove the detergent, SM-2 bio-beads (#1523920, Bio-Rad Laboratories, Hercules, CA, USA) were added to the sample to remove any remaining n-octyl glucoside. The solution was then centrifuged at 10,000 × g to remove the protein/lipid aggregates, and the final lipid concentrations of both the T- and V-liposomes were adjusted to 1 mM with a lipid-to-protein ratio of 50:1.
A total lipid mixing assay using the T- and V-liposomes was performed as described previously with minor modifications ([8]). Briefly, peptide inhibitors were applied to the T-vesicles at the indicated concentrations and then the T-vesicles were mixed with the V-vesicles in a 384-well plate for the initiation of fusion, with a T- to V-vesicle volume ratio of 9:1. The fusion was monitored using the dequenching of NBD fluorescence signal (excitation 465 nm/emission 530 nm). After at least 80 min of fusion, the maximum NBD signal was obtained by adding 0.1% Triton X-100™. All the lipid-mixing experiments were performed at 37°C.

Row | Sequence | reduction of β-hexosaminidase release [1] | inhibition of mast cell degranulation with versus without A23187 pretreatment [1] | inhibition of β-hexosaminidase release after A23187 pretreatment [1] | inhibition of membrane fusion, peptide added after preincubation [2] | inhibition of membrane fusion (lipid mixing) [3] | inhibition of membrane fusion, peptide added before preincubation [3]
1 | LQSEVEGVKNIMTQNVE [Vp8N, 17-mer peptide, N-terminal region of VAMP8 SNARE motif] | 30–40% | inhibited mast cell degranulation more efficiently than without pretreatment | inhibited both histamine and β-hexosaminidase release | inhibitory activities significantly diminished | specific to the SN23-Syn4-Vp8 complex | inhibited the membrane fusion driven only by their cognate SNARE complexes
2 | SARHSEIQQLERTIREL [Syn4N, 17-mer peptide, N-terminal region of syntaxin 4 SNARE motif] | 30–40% | inhibited mast cell degranulation more efficiently than without pretreatment | inhibited both histamine and β-hexosaminidase release | inhibitory activities significantly diminished | inhibited membrane fusion by both the SN23-Syn4-Vp2 and SN23-Syn4-Vp8 complexes | inhibited the membrane fusion induced by both SN23-Syn4-Vp2 and SN23-Syn4-Vp8
3 | EDEMEENLTQVGSILGN [SC23N, 17-mer peptide, N-terminal region of SNAP-23 SNARE motif SC23] | – | inhibited mast cell degranulation more efficiently than without pretreatment | – | inhibitory activities significantly diminished | inhibited membrane fusion by both the SN23-Syn4-Vp2 and SN23-Syn4-Vp8 complexes | inhibited the membrane fusion induced by both SN23-Syn4-Vp2 and SN23-Syn4-Vp8

Source: article PMC5904360, “Soluble N-Ethylmaleimide-Sensitive Factor Attachment Protein Receptor-Derived Peptides for Regulation of Mast Cell Degranulation” (Frontiers in Immunology, 2018)
